According to patent publication US8361999B2, “Methods of treating cholesterol gallstone disease with ezetimibe” (Pontificia Universidad Catolica de Chile, priority 2005, dated 2013):
“Also recorded” adds a separate entry of the source.

Test system: MDR2
Assay: Hepatic expression of phospholipid transporter MDR2 (Northern blot)
Format: in vivo, mouse
Description: Expression of Specific Bile Salts (Ntcp, Bsep), Phospholipid (MDR2) and Organic Anions or Glutathione (MRP2); And Determination of Glutathione Synthesis (Gluthamylcystein-Synthetase (GGCS)).
Total RNA extraction. 80 mg hepatic tissue frozen at −70° C. was homogenized in 800 μl solution D, following the method described by Chomczynski and Sacchi, 1987. The RNA concentration was calculated by measuring the absorbance at 260 nm and its purity by the ratio OD260/OD280. The samples are stored at −20° C. RNA electrophoresis. 10 μg of total RNA are dried under gaseous N2 or vacuum for 10 minutes. 10 μl loading buffer were added, and the samples heated to 65° C., loaded into a denaturing 1% agarose/formaldehyde gel and run at 100 volts for 4 hours. The RNA integrity was determined by the clear visualization of the 28 S and 18 S ribosomal RNAs (FIG. 8).
Northern Blot and hybridization with radioactive probes. The gel with the RNA samples is washed with DEPC H2O for 10 minutes to eliminate formaldehyde and then incubated for 20 minutes with 50 mM NaOH for partial RNA hydrolysis. After a 10 minute wash with DEPC H2O to eliminate NaOH, the samples are transferred from the gel to Nylon membranes (Hybond-N, Amersham Pharmacia) over night by a capillary system. […]
Probe labeling by “de novo synthesis”. […] The percentage of incorporated radioactivity into the probe was always over 60%. […]

O=C1[C@H](CC[C@H](O)c2ccc(F)cc2)[C@@H](c2ccc(O)cc2)N1c1ccc(F)cc1 [Ezetimibe, (−)-1-(4-fluorophenyl)-(3R)-[3-(4-fluorophenyl)-(.S)-hydroxypropyl]-(4S)-(4-hydroxyphenyl)-2-azetidinone]
phospholipid transporter MDR2 at the mRNA level (lithogenic diet plus Ezetimibe vs lithogenic diet, 14 days): small but statistically significant decrease; also recorded: slight but statistically significant decrease
mdr2 protein levels (lithogenic diet plus Ezetimibe, data not shown): no concomitant decrease
